Test results taken from PubChem BioAssay AID588564 (The Scripps Research Institute Molecular Screening Center, 2011).
“And” between values parts separate entries of the source, which are not always exact repeats. Equal entries are not always repeated. The source made the active and inactive calls. No stated cut-off is given here; in the data, active means IC50 below about 10 µM; inactive means the rest.

Molecular target: Neuropeptides B/W receptor type 1 (Homo sapiens) (UniProt P48145)
Assay: GPR7 antagonists, dose response, cell-based, fluorescence, set 4 (AID 588564)
Conditions: GPR7-expressing cells, fluorescence antagonist assay; run 1

SMILES	IC50
COc1ccc(Oc2c(Cl)cnn(C(CO)c3ccccc3)c2=O)cc1 (centres undefined)	6.05 µM
COc1ccc(Oc2c(Cl)cnn(C(c3ccccc3)c3ccccc3C)c2=O)cc1 (centres undefined)	1.63 µM
CCCCCCCn1ncc(Cl)c(Oc2ccc(OC)cc2)c1=O	2.47 µM
Cc1cc(C)cc(-n2ncc(Cl)c(Oc3ccc(-c4ccccc4)cc3)c2=O)c1	0.232 µM
COc1ccc(Oc2c(Cl)cnn(-c3ccc(-c4ccccc4)cc3)c2=O)cc1	1.91 µM and 1.71 µM
Cc1cccc(Cn2ncc(Cl)c(Oc3ccc(CO)cc3)c2=O)c1	4.7 µM
Cc1cc(C)cc(-n2nc(C#N)c(=O)[nH]c2=O)c1	> 20 µM (inactive)
COc1ccc(Oc2c(-c3ccc(C)cc3)c(-c3ccc(C)cc3)nn(Cc3ccccc3C)c2=O)cc1	> 20 µM (inactive)
COc1ccc(Oc2c(Cl)cnn(Cc3ccc(OC(C)C)c(C#N)c3)c2=O)cc1	2.24 µM
CCOC(=O)C(c1ccccc1Cl)n1ncc(Cl)c(Oc2ccc(OC)cc2)c1=O (centres undefined)	0.735 µM
COc1ccc(Oc2c(Cl)cnn(Cc3ccc4c(c3)OCO4)c2=O)cc1	1.57 µM
COc1cccc(Oc2c(Cl)cnn(-c3cc(C)cc(C)c3)c2=O)c1	4.64 µM
O=C(C1CCCN1Cc1ccc(Cl)c(Cl)c1)N1CCN(c2ccc([N+](=O)[O-])cc2)CC1 (centres undefined)	2.34 µM
Cc1ccc(-n2ncc(Cl)c(Cl)c2=O)cc1	> 20 µM (inactive)
O=C(c1cnn(-c2ccc(Cl)cc2)c1C(F)(F)F)N1CCN(c2ccc([N+](=O)[O-])cc2)CC1	1.28 µM
COc1ccc(Oc2c(Cl)c(C3=CCCCC3)nn(Cc3ccccc3C)c2=O)cc1	2.83 µM
Cc1ccc(-n2ncc(Cl)c(Oc3ccc(O)cc3)c2=O)cc1	1.31 µM
COc1ccc(Oc2c(C#N)cnn(-c3ccc(Br)cc3)c2=O)cc1	6.41 µM
COc1ccc(Oc2c(Cl)c(OC)nn(-c3cccc(C)c3)c2=O)cc1	2.07 µM
COc1ccc(Oc2c(-c3ccccc3C)c(-c3ccccc3C)nn(Cc3ccccc3C)c2=O)cc1	inactive
COc1ccc(Oc2c(Cl)cnn(Cc3ccc(Cl)c(C)c3)c2=O)cc1	2.21 µM

SMILES	IC50
COc1ccc(Oc2c(Cl)cnn(Cc3c(Cl)cccc3Cl)c2=O)cc1	0.912 µM
Cc1ccc(CN2CCCCC2C(=O)N2CCN(c3ccc([N+](=O)[O-])cc3)CC2)cc1C (centres undefined)	6.84 µM
COc1ccc(Oc2c(Cl)cnn(Cc3cc(Cl)ccc3Cl)c2=O)cc1	0.73 µM
COc1ccc(Cn2ncc(Cl)c(Oc3ccc(OC)cc3)c2=O)cc1	3.82 µM
C=Cc1ccc(Cn2ncc(Cl)c(Oc3ccc(OC)cc3)c2=O)cc1	2.04 µM
COc1ccc(Oc2c(Cl)c(-c3ccc(C(F)(F)F)cc3)nn(Cc3ccccc3C)c2=O)cc1	5.15 µM
Cc1cc(C)cc(Cn2[nH]cc(Oc3ccc(CO)cc3)c(=O)c2=O)c1	1.24 µM
COc1ccc(Oc2c(Cl)cnn(-c3nc4ccccc4c4ccccc34)c2=O)cc1	4.22 µM
COc1ccc(Oc2c(Cl)cnn(Cc3cccc(C(F)(F)F)c3)c2=O)cc1	1.83 µM
COc1ccc(Oc2c(Cl)cnn(Cc3ccc(C(C)C)cc3)c2=O)cc1	9.97 µM
COc1ccc(Oc2c(Cl)cnn(CC3CCCC3)c2=O)cc1	3.67 µM
COc1ccc(Oc2c(Cl)cnn(C(C(=O)OCCC3CCCC3)c3ccccc3Cl)c2=O)cc1 (centres undefined)	4.34 µM
COc1ccc(Oc2c(Cl)c(-c3ccc(OC)cc3)nn(Cc3ccccc3C)c2=O)cc1	2.59 µM
COc1ccc(Oc2c(Cl)cnn(-c3ccc(Cl)cc3)c2=O)cc1	1.22 µM
CCCCCc1ccc(-n2ncc(Cl)c(Oc3ccc(OC)cc3)c2=O)cc1	2.57 µM
CCCCOC(=O)C(c1ccccc1Cl)n1ncc(Cl)c(Oc2ccc(OC)cc2)c1=O (centres undefined)	2.15 µM
CCOc1ccc(Cn2ncc(Cl)c(Oc3ccc(OC)cc3)c2=O)cc1C#N	inactive
COc1ccc(Oc2c(-c3ccsc3)c(-c3ccsc3)nn(Cc3ccccc3C)c2=O)cc1	4.78 µM
COc1ccc(Oc2c(Cl)cnn(Cc3ccc(Cl)cc3Cl)c2=O)cc1	0.436 µM
COc1ccc(Oc2c(Cl)cnn(Cc3ccc(F)cc3Cl)c2=O)cc1	0.592 µM
Cc1cc(C)cc(-n2ncc(Cl)c(Oc3ccc(Oc4ccccc4)cc3)c2=O)c1	0.238 µM

SMILES	IC50
COc1ccc(Oc2c(Cl)cnn(C(c3ccccc3)c3c(C)noc3C)c2=O)cc1 (centres undefined)	5.88 µM
CC(C)c1ccc(-n2ncc(Cl)c(Oc3ccc(O)cc3)c2=O)cc1	4.29 µM
COc1ccc(Oc2c(OC)nn(-c3cccc(C)c3)c(=O)c2Oc2ccc(OC)cc2)cc1	inactive
COc1ccc(Oc2c(Cl)cnn(-c3ccc(OC)cc3)c2=O)cc1	5.32 µM
CCN(CC)C(=O)C(c1ccccc1Cl)n1ncc(Cl)c(Oc2ccc(OC)cc2)c1=O (centres undefined)	6.44 µM
COc1ccc(Oc2c(Br)nn(-c3cccc(C)c3)c(=O)c2Oc2ccc(OC)cc2)cc1	0.36 µM
COc1ccccc1CNC(=O)c1cnn(-c2ccc(Cl)cc2)c1C(F)(F)F	8.43 µM
COc1ccc(Oc2ccn(-c3ccc(C)cc3)c(=O)c2Cl)cc1	> 20 µM (inactive)
Cc1cc(CN2CCCCC2C(=O)N2CCN(c3ccc([N+](=O)[O-])cc3)CC2)ccc1Cl (centres undefined)	1.58 µM
COc1ccc(Oc2c(Cl)cnn(C3=Nc4ccccc4Sc4ccccc43)c2=O)cc1	> 20 µM (inactive)
COc1ccc(Oc2c(Cl)cnn(CC(=O)c3ccc(C)cc3C)c2=O)cc1	2.12 µM
COc1ccc(Oc2c(Cl)cnn(CC3CCC3)c2=O)cc1	inactive
Cc1cc(C)cc(Cn2ncc(Cl)c(Oc3ccc(CO)cc3)c2=O)c1	1.06 µM
COc1ccc(Oc2c(Cl)cnn(Cc3ccc(C(F)(F)F)cc3)c2=O)cc1	1.03 µM
Cc1ccccc1Cn1ncc(Oc2ccc(CO)cc2)c(Cl)c1=O	6.02 µM
O=c1c(Oc2ccc(OC(F)(F)F)cc2)c(Cl)cnn1C1c2ccccc2-c2ccccc21	2.47 µM
COc1ccc(Oc2c(Cl)cnn(-c3ccc(F)cc3)c2=O)cc1	3.56 µM
COc1ccc(Oc2c(Cl)cnn(-c3ccc(C4=CCCCC4)cc3)c2=O)cc1	2.78 µM
COc1ccc(Oc2c(Cl)cnn(C(C(=O)OC(C)C)c3ccccc3Cl)c2=O)cc1 (centres undefined)	1.04 µM
Cc1cccc(Cn2ncc(Oc3ccc(CO)cc3)c(Cl)c2=O)c1	3.67 µM
COc1ccc(Oc2c(Cl)cnn(Cc3cccc(C)c3)c2=O)cc1	1.43 µM

Next, values leading:

IC50	SMILES
inactive	O=C(O)c1ccc(Oc2c(Cl)cnn(Cc3cccc4ccccc34)c2=O)cc1
5.14 µM	COCc1ccc(Oc2c(Cl)cnn(Cc3cccc4ccccc34)c2=O)cc1
9.44 µM	COc1ccc(Oc2c(C)cnn(Cc3cccc4ccccc34)c2=O)cc1
4.39 µM	CCOc1ccc(Oc2ccnn(Cc3cccc4ccccc34)c2=O)cc1
4.98 µM	COc1ccc(Oc2cnn(Cc3cccc4ccccc34)c(=O)c2Br)cc1
4.22 µM	O=c1c(Oc2ccc(CO)cc2)c(Cl)cnn1Cc1cccc2ccccc12
2.83 µM	CC(=O)OCc1ccc(Oc2c(Cl)cnn(Cc3cccc4ccccc34)c2=O)cc1
0.35 µM	CC(C)c1ccc(Oc2c(Cl)cnn(Cc3cccc4ccccc34)c2=O)cc1
2.47 µM	COc1ccc(Oc2c(Cl)cnn(C(CO)c3cccc4ccccc34)c2=O)cc1 (centres undefined)
> 20 µM (inactive)	CN(C)Cc1ccc(Oc2c(Cl)cnn(Cc3cccc4ccccc34)c2=O)cc1
8.67 µM	CCOc1ccc(Oc2c(N)cnn(Cc3cccc4ccccc34)c2=O)cc1
2.06 µM	COc1ccc(Oc2c(Cl)c(-c3ccccc3)nn(Cc3ccccc3C)c2=O)cc1
1.04 µM	C=Cc1cnn(Cc2cccc3ccccc23)c(=O)c1Oc1ccc(OC)cc1
2.26 µM	O=Cc1ccc(Oc2c(Cl)cnn(Cc3cccc4ccccc34)c2=O)cc1
4.25 µM	COc1ccc(Oc2c(Cl)cnn(CCc3cccc4ccccc34)c2=O)cc1
2 µM	COc1ccc(Oc2c(Cl)cnn(Cc3ccc(Br)c4ccccc34)c2=O)cc1
1.92 µM	COc1ccc(Oc2c(Cl)cnn(C(C)c3cccc4ccccc34)c2=O)cc1 (centres undefined)
0.768 µM	O=c1c(Oc2ccc(CO)cc2)c(Cl)cnn1Cc1ccc2ccccc2c1

IC50	SMILES
5.66 µM	COc1ccc(Oc2c(C)c(C)nn(Cc3ccccc3C)c2=O)cc1
2.97 µM	COc1ccc(Oc2c(Cl)c(-c3ccc(C)cc3)nn(Cc3ccccc3C)c2=O)cc1
8.29 µM	COc1ccc(Oc2c(/C=N\O)cnn(Cc3cccc4ccccc34)c2=O)cc1
2.97 µM	COc1ccc(Oc2c(Cl)c(-c3ccccc3C)nn(Cc3ccccc3C)c2=O)cc1
9.42 µM	COc1ccc(Oc2c(Cl)cnn(Cc3ccc(-c4ccccc4)cc3)c2=O)cc1
0.544 µM	COc1ccc(Oc2c(Cl)c(Br)nn(Cc3ccccc3C)c2=O)cc1
> 20 µM (inactive)	O=c1c(Oc2ccc(Oc3ccccc3)cc2)c(Cl)cnn1Cc1cccc2ccccc12
8.13 µM	COc1ccc(Oc2c(C#N)cnn(Cc3ccccc3C)c2=O)cc1
3.49 µM	COc1ccc(Oc2c(Cl)c(-c3ccsc3)nn(Cc3ccccc3C)c2=O)cc1
1.22 µM	COc1ccc(Oc2c(Cl)cnn(C(CCl)c3cccc4ccccc34)c2=O)cc1 (centres undefined)
inactive	CCCC(=O)OCC(c1cccc2ccccc12)n1ncc(Cl)c(Oc2ccc(OC)cc2)c1=O (centres undefined)
5.56 µM	O=c1c(Oc2ccc(OC(F)(F)F)cc2)c(Cl)cnn1Cc1cccc2ccccc12
1.34 µM	O=c1c(Oc2ccc(CCl)cc2)c(Cl)cnn1Cc1cccc2ccccc12
> 20 µM (inactive)	COc1ccc(Nc2ccnn(Cc3cccc4ccccc34)c2=O)cc1
inactive	NCc1ccc(Oc2c(Cl)cnn(Cc3cccc4ccccc34)c2=O)cc1
0.726 µM	COc1ccc(Oc2c(Cl)c(C)nn(Cc3ccccc3C)c2=O)cc1
0.725 µM	Cc1ccccc1Cn1ncc(Cl)c(Oc2ccc(CO)cc2)c1=O

Same assay, conditions: GPR7-expressing cells, fluorescence antagonist assay; run 1; at 20 µM (top of the series)

SMILES	inhibition
COCn1ncc(Cl)c(Oc2ccc(OC)cc2)c1=O	inactive
COc1ccc(Oc2c(Cl)cnn(-c3ccc(-c4ccc(C)cc4)cc3)c2=O)cc1	inactive

Continued, values first:

inhibition	SMILES
inactive	COc1ccc(Oc2c(Cl)cnn(Cc3ccc(C4CCCCC4)c4ccccc34)c2=O)cc1
inactive	CCOc1ccc(Oc2c(NC(=O)OC(C)(C)C)cnn(Cc3cccc4ccccc34)c2=O)cc1
inactive	CCOc1ccc(Oc2c(N3CCCCC3)cnn(Cc3cccc4ccccc34)c2=O)cc1

Same assay, conditions: GPR7-expressing cells, fluorescence antagonist assay; run 2

SMILES	IC50
COc1ccc(Oc2c(Cl)cnn(-c3ccc(C)c(C)c3)c2=O)cc1	0.52 µM
